Results reported in patent US20250281610A1, “P2RY2 ACTIVITY MODULATORS” (Deutsches Krebsforschungszentrum Stiftung des öffentlichen …, priority 2022, published 2025).

System: CEA-specific CAR transduced T cells co-cultured with SW480 cells
Assay: T cell activation in co-culture of CEA-specific CAR-T cells with SW480 cells
Format: cell-based, human
Settings: 10 μM AR-C, 24 hours, CD3+CD8+ or CD3+CD4+ population (FIG. 19)
Description: FIG. 19. Effects of P2RY2 agonist and P2RY2 antagonist on T cell activity in T cell-cancer cell co-cultures. T cells transduced with a CEA-specific CAR (CAR-T) were co-cultured with genetically edited SW480 cells for 24 hours in the absence or presence of 40 μM ATP, 200 μM ATPγS, 10 μM Diquafosol, 5 μM Denufosol and 10 μM AR-C 118925XX (AR-C). Control cells: SW480 cells transduced with non-targeting sgRNA and Cas9 (gNT); P2RY2 deficient cells: SW480 cells transduced with P2RY2-targeting sgRNA and Cas9 (gP2RY2-3, gP2RY2-4); B7-H3 (CD276) deficient cells: SW480 cells transduced with B7-H3-targeting sgRNA and Cas9 (gCD276-1); P2RY2 and B7-H3 double deficient cells: SW480 cells transduced with P2RY2-targeting sgRNA, B7-H3-targeting sgRNA, and Cas9 (gCD276-1 gP2RY2-3 DKO, gCD276-1 gP2RY2-4 DKO); P2RY2 overexpression cells: SW480 cells transduced with the open reading frame of P2RY2 (P2RY2-OE); B7-H3 overexpression cells: SW480 cells transduced with the open reading frame of CD276 (CD276-OE). Transduced cancer cells were selected by antibiotics according to antibiotic resistance genes carried by the lentiviral constructs. Flow cytometry analysis of expression of CD25 and CD69 and production of IFNγ within the CD3+CD8+ or CD3+CD4+ cell population is shown (values indicate the percentages of positive cells).
MART-1 specific T cells were generated as described (Mezzadra et al., Nature 549, 106-110 (2017); Jorritsma et al., Blood 110 (10): 3564-3572. (2007)). To generate CD33-specific chimeric antigen receptor (CAR) T cells and CEA-specific CAR-T cells, a CD33Hul95-CD28Z CAR (described in WO 2019/178382) cassette and MFE-23 (described in US20050147614A1)-CD28Z CAR were separately cloned into retroviral vectors, and the resulting virus was used to transduce T cells as described (Mezzadra et al., Nature 549, 106-110 (2017); Jorritsma et al., Blood 110 (10): 3564-3572. (2007)).
The open reading frames of transcripts of P2RY2 (ENST00000393597.7) or CD276 (ENST00000318443.10), were ordered as a codon optimized gBlock Gene Fragment (Integrated DNA Technologies or Twist Bioscience) and cloned into a lentiviral vector containing a blasticidin selection cassette. Constructs were verified by Sanger sequencing.
MART1-specific CD8+ T cells and MART1 epitope-expressing cancer cells were mixed at a ratio of 1:16 to 1:1. CD33 CAR-T cells and CD33 expressing THP-1 cells were mixed at a ratio of 1:16 to 1:4. CEA CAR-T cells and CEA expressing SW480 cells were mixed at a ratio of 1:1. Next, cells were centrifugated at 1,600 g for 3 min and incubated at 37° C. and 5% CO2 for 12-72 hours. T cell activation was assessed by surface staining with anti-CD137-BV421 (4-1BB, Biolegend), anti-CD137-PE/Cy7 (4-1BB, Biolegend), anti-CD69-APC/Fire™ 750 (FN50, Biolegend), anti-CD25-AF700 (BC96, Biolegend), anti-CD25-APC (BC96, Biolegend) antibodies and intracellular staining with anti-IL-2-PE/Cy7 (MQ1-17H12, Biolegend), anti-IFN-7-BV421 (4S.B3, Biolegend), anti-TNF-α-BV785 (MAb11, Biolegend), anti-TNF-α-APC (MAb11, Biolegend) antibodies, followed by flow cytometry analysis. For intracellular staining, brefeldin A (Biolegend) was added to the cell culture medium 4 h before cells were harvested. The viability of cancer cells that grow in suspension including THP-1 cells was assessed by flow cytometry-based absolute cell counting using AccuCount beads (Spherotech). For adherent cancer cells including BxPC3, MIA PaCa-2, MDA-MB-231 and MCF7, the cell viability was quantified using CellTiter-Blue Cell Viability Assay (Promega).

Cc1ccc2c(c1)C=Cc1cc(C)ccc1C2c1cn(Cc2ccc(C(=O)Nc3nn[nH]n3)o2)c(=O)[nH]c1=S [AR-C 118925XX]
increased: expression of T cell activation marker CD25 | expression of T cell activation marker CD69 | expression of T cell activation marker IFN-7
